From ChEMBL document CHEMBL1142160, “Overexpression and initial characterization of the chromosomal aminoglycoside 3'-O-phosphotransferase APH(3')-IIb from Pseudomonas aeruginosa” (2007)
In brackets after ≈: the same amount, converted by molar mass.

Experiments:
Type in all cases: functional
Pseudomonas aeruginosa = test: Antibacterial activity against Pseudomonas aeruginosa ATCC 27853
Escherichia coli [1] = test: Antibacterial activity against Escherichia coli BL21(DE3) expressing Pseudomonas aeruginosa APH(3')-2b
Escherichia coli [2] = test: Antibacterial activity against Escherichia coli BL21(DE3)

SMILES | MIC (Pseudomonas aeruginosa) [µg/mL] | MIC (Escherichia coli [1]) [µg/mL] | MIC (Escherichia coli [2]) [µg/mL]
NC[C@@H]1O[C@H](O[C@H]2[C@@H](O)[C@H](O[C@@H]3[C@@H](O)[C@H](N)C[C@H](N)[C@H]3O[C@H]3O[C@H](CN)[C@@H](O)[C@H](O)[C@H]3N)O[C@@H]2CO)[C@H](N)[C@@H](O)[C@@H]1O [FRAMYCETIN] | 128 (≈ 208 µM) | 96 (≈ 156 µM) | 12 (≈ 19.5 µM)
NC[C@H]1O[C@H](O[C@H]2[C@H](O)[C@@H](O)[C@H](N)C[C@@H]2N)[C@H](N)[C@@H](O)[C@@H]1O [NEAMINE] | 512 (≈ 1590 µM) | 1540 (≈ 4760 µM) | 96 (≈ 298 µM)
NC[C@H]1O[C@H](O[C@H]2[C@H](O)[C@@H](O[C@H]3O[C@H](CO)[C@@H](O)[C@H](N)[C@H]3O)[C@H](N)C[C@@H]2N)[C@H](N)C[C@@H]1O [TOBRAMYCIN] | 1 (≈ 2.14 µM) | 6 (≈ 12.8 µM) | 6 (≈ 12.8 µM)
NC[C@@H]1O[C@@H](O[C@H]2[C@H](O)[C@@H](O[C@H]3O[C@H](CO)[C@@H](O)[C@H](N)[C@H]3O)[C@H](N)C[C@@H]2N)[C@@H](O)[C@H](O)[C@H]1O [KANAMYCIN A] | 256 (≈ 528 µM) | 768 (≈ 1590 µM) | 12 (≈ 24.8 µM)
NC[C@H]1O[C@H](O[C@H]2[C@H](O[C@@H]3O[C@H](CO)[C@@H](O)[C@H]3O)[C@@H](O)[C@H](N)C[C@@H]2N)[C@H](N)[C@@H](O)[C@@H]1O [RIBOSTAMYCIN] | 384 (≈ 845 µM) | 768 (≈ 1690 µM) | 12 (≈ 26.4 µM)
NCC[C@H](O)C(=O)N[C@@H]1C[C@H](N)[C@@H](O[C@H]2O[C@H](CN)[C@@H](O)[C@H](O)[C@H]2O)[C@H](O)[C@H]1O[C@H]1O[C@H](CO)[C@@H](O)[C@H](N)[C@H]1O [AMIKACIN] | 3 (≈ 5.12 µM) | 12 (≈ 20.5 µM) | 12 (≈ 20.5 µM)
